The results in this text go back to patent US20060128737A1, “Androgen receptor agonists” (KAKEN PHARMACEUTICAL CO., LTD., priority 2003, published 2006).

The test system of assay [1] is orchiectomized (ORX) rats. The assay can be described thus: Test Example 2: effect on prostate, levator ani muscle and femoral bone mineral density in ORX rats (subcutaneous). As to conditions: for Femoral bone mineral density / Weight of levator ani muscle / Weight of prostate: 5 days a week, 4 weeks. Type of assay: in vivo, rat. The method, then:
Testes were removed from 12-week-old male SD rats. Starting on the next day, the compound of Example 1 (3, 10, 30 mg/kg) or DHT (0.1, 1, 10 mg/kg) was subcutaneously administered once daily for four consecutive weeks on a 5-day-a-week basis. The Example compound and DHT were dissolved in dimethyl sulfoxide and diluted 10-fold with olive oil to prepare solutions with various concentrations for use in the test. In an ORX control group, dimethyl sulfoxide as diluted 10-fold with olive oil was used for the test. Rats which had been falsely operated on without orchiectomy were used as a sham control group. On the next day after final administration, the wet weights of the ventral prostate and levator ani muscle were measured and the right femoral bone mineral density was measured by DEXA (double energy X-ray absorption) to evaluate the in vivo efficacy of the compound of Example 1.

Assay [2] deals with orchiectomized (ORX) rats. The assay can be described thus: Test Example 5: effect of oral administration on prostate, levator ani muscle and femoral bone mineral density in ORX rats. Type of assay: in vivo, rat. The method, then: Testes were removed from 12-week-old male SD rats. Starting on the next day, the compound of Example 1 (100 mg/10 ml/kg) was orally administered once daily for four consecutive weeks on a 5-day-a-week basis. As a positive control, testosterone propionate (TP) (10 mg/kg) was subcutaneously administered once daily on a continuous 5-day-a-week basis. The test compound was suspended in a 0.5% methyl cellulose solution used as a solvent whereas TP was dissolved in dimethyl sulfoxide and diluted 10-fold with olive oil for use in the test. In an ORX control group, dimethyl sulfoxide as diluted 10-fold with olive oil was used for the test. Rats which had been falsely operated on without orchiectomy were used as a sham control group. On the next day after final administration, the wet weights of the ventral prostate and levator ani muscle were measured and the right femoral bone mineral density was measured by DEXA (double energy X-ray absorption) to evaluate the in vivo efficacy of the compound of Example 1. The results are shown in Table 19 and in FIGS. 10 to 12.

Assay [3] deals with T1, rat androgen receptors (rat AR) (Rattus norvegicus, UniProt P15207).
T1 construct: from tissue; host or cells: prostate of orchiectomized 11-week-old male SD rats (cytosolic supernatant of homogenate)
T1 sequence (P15207 1-902): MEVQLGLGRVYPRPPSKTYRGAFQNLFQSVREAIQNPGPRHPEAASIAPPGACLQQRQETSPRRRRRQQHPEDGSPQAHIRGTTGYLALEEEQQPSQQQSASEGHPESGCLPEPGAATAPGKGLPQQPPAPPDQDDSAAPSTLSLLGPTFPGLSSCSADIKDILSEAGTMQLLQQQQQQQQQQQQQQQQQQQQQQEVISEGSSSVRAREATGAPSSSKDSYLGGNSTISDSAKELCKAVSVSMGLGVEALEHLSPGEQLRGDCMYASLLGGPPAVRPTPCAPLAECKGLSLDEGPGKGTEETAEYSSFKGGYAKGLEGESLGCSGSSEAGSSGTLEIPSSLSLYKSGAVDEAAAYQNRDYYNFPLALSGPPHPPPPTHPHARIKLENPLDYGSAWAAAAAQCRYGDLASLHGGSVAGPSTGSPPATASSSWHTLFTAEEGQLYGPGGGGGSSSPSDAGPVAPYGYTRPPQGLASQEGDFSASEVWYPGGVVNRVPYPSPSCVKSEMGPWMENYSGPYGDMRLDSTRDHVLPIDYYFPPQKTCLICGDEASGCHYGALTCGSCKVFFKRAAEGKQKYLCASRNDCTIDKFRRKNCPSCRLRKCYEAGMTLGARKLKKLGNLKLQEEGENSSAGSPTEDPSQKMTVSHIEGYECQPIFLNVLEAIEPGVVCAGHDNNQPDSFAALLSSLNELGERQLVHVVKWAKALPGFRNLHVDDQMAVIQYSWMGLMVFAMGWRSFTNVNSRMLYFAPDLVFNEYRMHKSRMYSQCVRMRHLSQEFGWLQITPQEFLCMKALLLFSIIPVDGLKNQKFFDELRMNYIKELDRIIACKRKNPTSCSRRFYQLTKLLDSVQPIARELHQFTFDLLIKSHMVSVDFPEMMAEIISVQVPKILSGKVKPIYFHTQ
Nature of the assay: Test for competitive binding to rat androgen receptors (rat AR). As to conditions: RBA=100×(IC50 of hydroxyflutamide)/(IC50 of compound); 3H-testosterone, rat prostate AR fraction. The method, then:
Preparation of a rat AR fraction: Prostates were harvested into ice-cooled ET buffer (10 mM Tris, 1 mM EDTA, 5 mM DTT, 10 mM sodium molybdate, pH 7.4) 3 days after orchiectomy in 11-week-old male SD rats. The prostate was finely cut, and ET buffer was added, whereafter the mixture was homogenized using a homogenizer. The homogenate was ultracentrifuged (100,000×g, 60 min, 4° C.), and the supernatant was used as a rat AR fraction (hereinafter referred to as ARF).
Binding test: ^3H-testosterone (hereinafter referred to as ^3H-T) was diluted with ET buffer. Dihydrotestosterone (DHT) was prepared so as to have a final concentration of 1 μM which was 400 times the maximum concentration of ^3H-T (2.5 nM). The ^3H-T solution was added to a 1.5 ml tube containing DHT, no DHT, or various concentrations of a test compound. Further, 200 μg ARF was added to adjust the final volume to 100 μl. The mixture was incubated for 2 hours at 4° C., and then 300 μl of a 0.05% dextran T70-1.0% activated carbon solution was added. The mixture was further incubated for 15 minutes in ice to remove the free ^3H-T by adsorption. After centrifugation (4° C., 2,500 rpm, 5 min), 275 μl of the supernatant was harvested into a liquid scintillation vial, and 2 ml of Clear Sol was added. The mixture was stirred, allowed to stand, and measured for ^3H radioactivity with a liquid scintillation counter.
Calculation of the relative binding inhibition rate: The binding inhibition rate (%) of the compound according to the present invention was calculated from the following equation, and the 50% inhibition concentration (IC50) was calculated by the probit analysis of the concentration-binding inhibition curve.
The relative binding inhibition rate (RBA: Relative Binding Affinity) was determined from the following equation (Endocrinology 138, 863-870, 1997): RBA=100×(IC50 of hydroxyflutamide)/(IC50 of a compound of the present invention)

For assay [4], the system named is orchiectomized (ORX) rats. Nature of the assay: Test Example 3: effect on prostate, levator ani muscle and femoral bone mineral density in ORX rats (subcutaneous). Type of assay: in vivo, rat. The protocol:
(§1) Testes were removed from 12-week-old male SD rats. Starting on the next day, the compound of Example 12 or 65 (30 mg/kg) or DHT (0.1, 1, 10 mg/kg) was subcutaneously administered once daily for four consecutive weeks on a 5-day-a-week basis. The Example compounds and DHT were dissolved in dimethyl sulfoxide and diluted 10-fold with olive oil to prepare solutions with various concentrations for use in the test. In an ORX control group, dimethyl sulfoxide as diluted 10-fold with olive oil was used for the test. Rats which had been falsely operated on without orchiectomy were used as a sham control group. On the next day after final administration, the wet weights of the ventral prostate and levator ani muscle were measured and the right femoral bone mineral density was measured by DEXA (double energy X-ray absorption) to evaluate the in vivo efficacy of the compounds of Example 12 and 65.

Assay [5] deals with orchiectomized (ORX) rats. The assay can be described thus: Test Example 4: effect on prostate, levator ani muscle and femoral bone mineral density in ORX rats (subcutaneous). Type of assay: in vivo, rat. As to conditions: for Prostate weight as % of the level of the sham control group: 30 mg/kg sc; for Femoral bone mineral density / Weight of levator ani muscle / Weight of prostate: 30 mg/kg sc once daily, 5 days a week, 4 weeks. The protocol: as §1, with “Example 113” for “Example 12”, “or 114” for “or 65”, “DHT (10” for “DHT (0.1, 1, 10”, “test. […]” for “test. Rats which had been falsely operated on without orchiectomy were used as a sham control group.”, “and 114.” for “and 65.”

Setting [6] is: 100 mg/kg PO once daily, 5 days a week, 4 weeks.
The mark [7] stands for this setting: 30 mg/kg sc once daily, 5 days a week, 4 weeks.

On to `COCC(=O)NCC(C)(C)[C@H]1Nc2ccc([N+](=O)[O-])cc2C2C=CC[C@H]21` (relative stereo) [Example 1, (3aR*,4S*,9bS*)-2-methoxy-N-[2-methyl-2-(8-nitro-3a,4,5,9b-tetrahydro-3H-cyclopenta[c]quinolin-4-yl)propyl]-1-acetamide], for which the “Femoral bone mineral density” value amounted to 116 ± 6 mg/cm^2 in assay [1] (3 mg/kg sc once daily), 119 ± 3 mg/cm^2 in assay [1] (10 mg/kg sc once daily), 122 ± 1 mg/cm^2 in assay [1] (30 mg/kg sc once daily) and 135 ± 6 mg/cm^2 in assay [2] (setting [6]). Besides, the “Weight of levator ani muscle” value was found to be 56 ± 7 mg/100 g body weight in assay [1] (3 mg/kg sc once daily), 65 ± 6 mg/100 g body weight in assay [1] (10 mg/kg sc once daily), 71 ± 4 mg/100 g body weight in assay [1] (30 mg/kg sc once daily) and 87 ± 5 mg/100 g body weight in assay [2] (setting [6]). The Weight of prostate in assay [1] (3 mg/kg sc once daily) came to 41 ± 8 mg/100 g body weight; in assay [1] (10 mg/kg sc once daily) it was 61 ± 10 mg/100 g body weight; in assay [1] (30 mg/kg sc once daily) it was 82 ± 10 mg/100 g body weight; in assay [2] (setting [6]), 117 ± 23 mg/100 g body weight. Moreover, the entries for the “Prostate weight as % of the level of the sham control group” value (shortened to “Prostate weight as %”) in assay [1] (30 mg/kg sc) and in assay [2] (100 mg/kg orally) were “about 80%” and “about 75%”, respectively. Moreover, the “RBA (Relative Binding Affinity)” value in assay [3] stood at 1076.
On to `CC(C)(CNC(=O)c1ccc(Br)cc1)[C@H]1Nc2ccc([N+](=O)[O-])cc2C2OCC[C@H]21` (relative stereo) [Example 12, (3aS*,4S*,9bS*)-4-bromo-N-[2-methyl-2-(8-nitro-2,3,3a,4,5,9b-hexahydro-furo[3,2-c]quinolin-4-yl)propyl]benzamide], for which the “Prostate weight as %” value in assay [4] (30 mg/kg sc) is “about 35%”. Also, in assay [4] (setting [7]), the “Femoral bone mineral density” value stood at 122 ± 5 mg/cm^2, the “Weight of levator ani muscle” value turned out to be 54 ± 5 mg/100 g body weight and the Weight of prostate is given as 36 ± 6 mg/100 g body weight. In addition, the “RBA (Relative Binding Affinity)” value in assay [3] is given as 94.
For the molecule `CC(C)(CNC(=O)c1ccc(OC(F)(F)F)cc1)[C@H]1Nc2ccc(C#N)cc2[C@H]2OCC[C@H]21` (relative stereo) [Example 113, (3aS*,4S*,9bS*)-N-[2-(8-cyano-2,3,3a,4,5,9b-hexahydro-furo[3,2-c]quinolin-4-yl)-2-methyl-propyl]-4-trifluoromethoxybenzamide], in assay [3], the “RBA (Relative Binding Affinity)” value is on record as 58. Besides, in assay [5], the “Prostate weight as %” value is given as “about 40%”, the “Femoral bone mineral density” value is recorded as 148 ± 3 mg/cm^2, the “Weight of levator ani muscle” value was found to be 65 ± 6 mg/100 g body weight and the Weight of prostate is 59 ± 16 mg/100 g body weight.
The like results for `CCOc1ccc(C(=O)NCC(C)(C)[C@H]2Nc3ccc(C#N)cc3[C@H]3OCC[C@H]32)cc1` (relative stereo) [Example 114, (3aS*,4S*,9bS*)-N-[2-(8-cyano-2,3,3a,4,5,9b-hexahydro-furo[3,2-c]quinolin-4-yl)-2-methyl-propyl]-4-ethoxybenzamide] were, in that order, 55, “about 60%”, 150 ± 8 mg/cm^2, 66 ± 11 mg/100 g body weight and 86 ± 17 mg/100 g body weight.
As to `CCOc1ccc(C(=O)NCC(C)(C)[C@H]2Nc3ccc([N+](=O)[O-])cc3C3OCC[C@H]32)cc1` (some centres unmarked) [Example 20], the “RBA (Relative Binding Affinity)” value in assay [3] stood at 161.
On to `CC(C)(O)C(=O)Nc1ccc([N+](=O)[O-])c(C(F)(F)F)c1` [Hydroxyflutamide, hydroxyflutamide, reference compound], for which the “RBA (Relative Binding Affinity)” value in assay [3] amounted to 100.
